Where two headings read alike, the source gives them in different places.
How the values were obtained:
[1] = biological target: T1, HCV helicase (helicase domain of NS3 protein) (UniProt P27958); assay: Fluorometric (FRET) antihelicase activity assay; assay type: biochemical, hepatitis C virus (HCV); conditions: concentration inhibiting 50% of helicase activity; 10 nM enzyme pre-incubated 15 min with derivative, unwinding at 30° C. for 60 min; read-out: IC50
T1 construct: The helicase domain of NS3 protein was expressed in a baculovirus system in HF insect cell line; fused on or other part: Histidine tag, inferred from the Talon cobalt column purification ('histidine repetitions')
Excerpt: A reaction takes place on a 96- or 384-well microtitration plate and a course of the reaction is observed in real time.
The helicase domain of NS3 protein was expressed in a baculovirus system in HF insect cell line.
In this assay, FAM fluorescence is quenched by fluorescence energy transfer (FRET) to the BHQ molecule, while unwinding of double-stranded DNA structure leads to decrease of FRET phenomenon and increase of FAM fluorescence signal. The assay allows for examining a large number of samples, i.e., different helicase inhibitors at various concentrations and with many repetitions, in standardized conditions. The reaction is conducted in a microtitration plate. The reaction process is observed in real time.
The enzyme (10 nM) was pre-incubated with the tested derivatives dissolved in DMSO (0.005 to 20 μM concentration) without ATP for 15 min at room temperature. The reaction of DNA unwinding was started by addition of ATP and was carried out at 30° C. for 60 min in a Synergy HTi (Biotek) fluorometer. […] Fluorescence was measured every 2 mins.
The enzyme activity was calculated as the initial reaction velocity from the linear part of reaction curve (fluorescence growth as a function of time) using a linear regression method. Inhibition was calculated as comparison of activity of the helicase incubated with inhibitor to activity of the helicase incubated without inhibitor, but with a proper concentration of DMSO, expressed in percent.

[2] = system: subgenomic HCV genotype 1 (con 1) replicon; assay: Antiviral activity, subgenomic HCV replicon luciferase test in Huh-7 cells; assay type: cell-based, hepatitis C virus
Method: Studies on inhibition of HCV replication, using human liver cancer cell line (Huh7) carrying a subgenomic HCV replicon of genotype 1 (con1) with a reporter/selection fusion protein luc-ubi-neo, were also carried out.
In order to examine antiviral activity and to determine therapeutic index of exemplary anthracycline antibiotics, subgenomic replicon of hepatitis C virus was used, which is a modified genome of HCV lacking structural genes. The replicon was a non-infective form of the virus, and therefore is safe to work with and makes it easier for high-throughput screening of potential inhibitors of its replication.
Additional simplification was the use of reporter protein—luciferase, whose activity (i.e., luminescence generated by it after addition of substrate) was proportional to the amount of the protein expressed, which allowed determination of HCV RNA replication level and its inhibition by virus replication inhibitors.
The human hepatoma cell line Huh-7 and the plasmid pFK-luc-ubi-neo/NS3-3′/Con1/5.1 carrying the subgenomic HCV genotype 1 (con 1) replicon with the luc-ubi-neo reporter/selective fusion protein (Vrolijk J. M. et al., J. Virol. Methods 110: 201-209, 2003), used in the experiments, were provided by Dr. Ralf Bartenschlager (Department of Molecular Virology, University of Heidelberg, Heidelberg). Huh-7 clones carrying persistently-replicating subgenomic HCV replicons were obtained using the following modification of the protocol described by Lohman V. et al. (J. Virol. 75:1437-1449, 2001).
(§1) Huh-7 cells were grown in minimal essential medium (Dulbecco's Modified Minimal Essential Medium, DMEM; Invitrogen) with high glucose concentration (4.5 g/L) supplemented with 2 mM L-glutamine and 1 μM non-essential amino acids, such as: glycine, L-alanine, L-asparagine, L-aspartic acid, L-glutamic acid, L-proline and L-serine, and also with 100 U/mL penicilin, 100 μg/mL streptomycin, and 10% fetal bovine serum (FBS, Sigma). In cultures of cells bearing the subgenomic HCV replicon 250 μg/mL of aminoglycoside antibiotics G418 (Geneticin; Invitrogen) was added to the medium. Cells were grown at 37° C. (5% CO2) and were passaged twice per week, diluted 7 to 10 times, according to the protocol described in Vrolijk J. M. et al., J. Virol. Methods 110:201-209, 2003.
(§2) The Huh-7 cells carrying replicons were cultivated with the following concentrations of anthracycline antibiotics: 5 to 200 nM for 4 days to determine their influence on HCV RNA replication and 5 to 5000 nM for 3 days to determine cytotoxicity. The medium with 1% DMSO was used as a control.
Conditions of the antiviral activity test of antracycline antibiotics were based on the protocol described by Paeshuyse J. et al. (Biochem. Biophys. Res. Commun. 348: 139-144, 2006). A logarithmic culture of HCV replicon-carrying cells was diluted in complete DMEM medium supplemented with 250 μg/ml G418 to the concentration of 5-7×10^3 cells per mL and aliquoted into 96-well white microtitration plate with optical bottom (Nunc) (100 μL per well). After 24 h at 37° C. the medium was removed and dilution of inhibitors in the range of 5 to 200 nM was added in 100 μL of fresh DMEM medium without G418. Huh-7 cells with 1% DMSO were used as a control. After 4 days at 37° C., the medium was removed and 40 μL of mixture of Glo Lysis buffer and Bright-Glo luciferase assay system (Promega) was added to each well. After 2 mins of incubation luminescence was measured with a Synergy HTi (Biotek) device. The experiment was repeated at least three times with three repetitions for each inhibitor concentration.

[3] = biological target: helicase; conditions: Borowski P. et al., Antiviral Res. 55, 397-412, 2002; read-out: IC50 (antihelicase activity); cited from earlier work
[4] = Cytotoxicity (MTT) in HCV replicon-carrying Huh-7 cells; conditions: human, Huh-7 cells carrying subgenomic HCV replicon
Method: as §1, §2
(§3) When determining cytotoxicity, as in the antiviral test, logarithmic culture of HCV replicon-carrying cells was diluted in complete DMEM medium supplemented with 250 μg/mL G418 to the concentration of 5−7×10^3 cells per mL and aliquoted into 96-well mictotitration cell culture plate (100 μL per well). After 24 h at 37° C. medium was removed and inhibitors were added at concentrations of 5 to 5000 nM in 100 μL of fresh DMEM medium without G418. After 3 days at 37° C., the medium was removed and 100 μL of fresh DMEM medium with 0.5 mg/mL of MTT (tetrazolium bromide, Sigma) was added to each well. After 3 to 4 hours of incubation at 37° C., the medium with MTT was removed and 100 μL of 0.04 N HCl solution in absolute isopropanol was added to solubilize the precipitated dye. Dye absorbance was measured at 570 nm, while absorbance of the background was measured at 650 nm using Synergy HTi (Biotek). The experiment was repeated at least 3 times with 3 repetitions for each inhibitor concentration.

[5] = system: Huh-7 cells carrying replicons; assay: as above; conditions: Huh-7 replicon cells, 3 days, MTT, cell growth inhibited by 50%
Method: as §1, §2, §3

[6] = Hepatitis C virus, Huh-7, 96 h, Huh-7 replicon cells, 4 days, luminescence reduced by 50%
[7] = Huh-7 replicon cells, 4 days, luminescence reduced by 50%, read-out: EC50

T1 sequence (P27958 1027-1657): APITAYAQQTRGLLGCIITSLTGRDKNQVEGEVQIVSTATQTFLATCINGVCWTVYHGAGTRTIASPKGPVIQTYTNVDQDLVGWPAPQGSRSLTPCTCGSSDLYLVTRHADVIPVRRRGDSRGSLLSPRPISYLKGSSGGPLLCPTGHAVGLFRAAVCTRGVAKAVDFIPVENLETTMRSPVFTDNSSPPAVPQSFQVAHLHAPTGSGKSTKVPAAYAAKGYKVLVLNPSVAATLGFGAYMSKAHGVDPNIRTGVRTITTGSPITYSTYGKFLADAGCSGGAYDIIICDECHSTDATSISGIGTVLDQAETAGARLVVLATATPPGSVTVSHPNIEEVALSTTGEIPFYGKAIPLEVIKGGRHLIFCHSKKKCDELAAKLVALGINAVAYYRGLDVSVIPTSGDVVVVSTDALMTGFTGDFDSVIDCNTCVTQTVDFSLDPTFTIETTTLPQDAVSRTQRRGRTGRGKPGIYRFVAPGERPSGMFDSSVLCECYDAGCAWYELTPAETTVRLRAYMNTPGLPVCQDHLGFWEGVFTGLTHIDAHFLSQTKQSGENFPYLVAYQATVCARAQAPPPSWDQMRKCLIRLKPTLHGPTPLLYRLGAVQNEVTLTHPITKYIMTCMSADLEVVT

Row | SMILES | IC50 [1] [nM] | IC50 [3] [µM] | EC50 [2, 7] [nM] | CC50 [5] [nM] | also measured
1 | COc1cccc2c1C(=O)c1c(O)c3c(c(O)c1C2=O)C[C@@](O)(C(C)=O)C[C@@H]3O[C@H]1C[C@H](N)[C@H](O)[C@H](C)O1 [Daunorubicin, reference compound] | 6050 | 57 |  |  | EC50 [2, 6]: 31.2 nM
2 | COc1cccc2c1C(=O)c1c(O)c3c(c(O)c1C2=O)CC(O)(C(C)=O)CC3OC1CC(N=C(C)N2CCN(C)CC2)C(O)C(C)O1 (stereo not drawn) [Derivative 94] | 80 ± 20 |  |  |  | EC50 [2, 6]: 56.9 nM; CC50 at 3 days [4]: 1090 nM
3 | COc1cccc2c1C(=O)c1c(O)c3c(c(O)c1C2=O)CC(O)(C(=O)CO)CC3OC1CC(N=C(C)N2CCc3ccccc32)C(O)C(C)O1 (stereo not drawn) [Derivative 133] | 380 |  | 138 | 1570 | 
4 | COc1cccc2c1C(=O)c1c(O)c3c(c(O)c1C2=O)CC(O)(C(C)=O)CC3OC1CC(N=CN2CCCCCC2)C(O)C(C)O1.Cl (stereo not drawn) [Derivative 75] | 2330 |  | 8.4 | 47.9 | activity (EC50) fold higher than that of epidoxorubicin, doxorubicin, epidaunorubicin, or daunorubicin ([2]; HCV replicon): 4 fold
5 | COc1cccc2c1C(=O)c1c(O)c3c(c(O)c1C2=O)C[C@@](O)(C(C)=O)C[C@@H]3O[C@H]1C[C@H](N)[C@@H](O)[C@H](C)O1 [Epidaunorubicin, reference compound] | 3730 |  | 31.2 |  | 
6 | COc1cccc2c1C(=O)c1c(O)c3c(c(O)c1C2=O)C[C@@](O)(C(=O)CO)C[C@@H]3O[C@H]1C[C@H](N)[C@@H](O)[C@H](C)O1 [Epidoxorubicin, reference compound] |  | 0.75 |  |  | CC50 at 3 days [4]: 675 nM
7 | COc1cccc2c1C(=O)c1c(O)c3c(c(O)c1C2=O)C[C@@](O)(C(=O)CO)C[C@@H]3O[C@H]1C[C@H](N)[C@H](O)[C@H](C)O1 [Doxorubicin, reference compound] |  | 5 |  |  | EC50 [2, 6]: 31.2 nM; EC50 ([2]; Huh-7 replicon cells, 4 days, luminescence reduced by 50%): 42.9 nM; CC50 at 3 days [4]: 332 nM
8 | COc1cccc2c1C(=O)c1c(O)c3c(c(O)c1C2=O)CC(O)(C(=O)CO)CC3OC1CC(N=C(C)N2CCOCC2)C(O)C(C)O1 (stereo not drawn) [Derivative 125] | 290 |  | 114 | 909 | 
9 | O=C1c2c(O)ccc(O)c2C(=O)c2c(NCCNCCO)ccc(NCCNCCO)c21 [mitoxantrone] |  | 6.7 |  |  | 
10 | NC(=O)c1ncn([C@@H]2O[C@H](CO)[C@@H](O)[C@H]2O)n1 [ribavirin, reference compound] |  |  |  |  | EC50 ([2]; Hepatitis C virus, Huh-7, ribavirin, comparison drug): 120000 nM
11 | COC(=O)[C@@H]1c2cc3c(c(O)c2[C@@H](O[C@@H]2O[C@@H](C)[C@H](OC)[C@@](C)(OC)[C@H]2OC)C[C@]1(C)O)C(=O)c1c(O)cc2c(c1C3=O)O[C@@H]1O[C@@]2(C)[C@H](O)[C@@H](N(C)C)[C@@H]1O [nogalamycin] |  | 0.1 |  |  | 
12 | COc1cccc2c1C(=O)c1c(O)c3c(c(O)c1C2=O)CC(O)(C(=O)CO)CC3OC1CC(N=C(C)N2CCOCC2)C(O)C(C)O1 (stereo not drawn) [Derivative 54] | 510 |  | 129 | 4280 | 

Reference: US20090298786A1, “METHODS OF TREATING VIRAL INFECTIONS WITH ANTHRACYCLINE ANTIBIOTICS” (priority 2007, published 2009)
